Measurements published in patent US20200375864A1, “PERIODONTAL DISEASE TREATMENT” (STRAUMANN HOLDING AG, priority 2013, published 2020).
Entries after “also recorded” stand apart in the source; their conditions may differ.

Legend:
supragingival biofilm = test: 70/30 supragingival biofilm model, biofilm decontamination with antimicrobial solutions (Experiments 1 and 2); format: cell-based; conditions: for biofilm microbiota after 24 h (CFU, FIG. 8) / immediate effect on the biofilm microbiota (CFU, FIG. 8): hydrogen peroxide 0.1% and 1%; for CFU 24 hours after cleaning agent treatment (summary, FIG. 3b) / CFU immediately after cleaning agent treatment (summary, FIG. 3a): supragingival model, experiments 1 and 2; for immediate effect on the biofilm microbiota (CFU, FIG. 8): immediately after application, sodium hypochlorite 0.1%, 1% and 3%, detection limit <2.0E1; for CFU immediately after cleaning agent treatment (summary, FIG. 3a): immediate; for lasting biofilm inhibiting effect, recovery of the microorganisms after 24 h (CFU, FIG. 7) / immediate decontaminating effect compared to the saline control (CFU, FIG. 7): Experiment 1, chlorhexidine 0.2%, hydrogen peroxide 3%; for immediate decontaminating effect compared to the saline control (CFU, FIG. 7): after dip, sodium hypochlorite 3%
Text: Evaluation of biofilm decontamination with various antimicrobial solutions Tested in a 70/30 supragingival biofilm model For a detailed description of the biofilm model used in this experiment, see e.g. Guggenheim et al., 2004, 2001 a; and Shapiro et al., 2002 and Guggenheim et al., 2009. […]

subgingival biofilm = subgingival biofilm model on titanium discs, antimicrobial solutions alone, total CFU (Experiment 3); format: cell-based; conditions: for reduction of the microbiota on the biofilms compared with the saline controls immediately after exposure (total CFU, FIG. 13): immediately after 1 min exposure, NaCIO 0.1% and 1%
Text: (§1) Evaluation of subgingival biofilm decontamination with various antimicrobial solutions tested in a subgingival biofilm model For a detailed description of the biofilm model used in this experiment, see e.g. Guggenheim et al., 2004, 2001 a; and Shapiro et al., 2002 and Guggenheim et al., 2009. OMZ 278, Prevotella intermedia OMZ 493, Veilonella dispar OMZ 598, Fusobacterium nucleatum OMZ 607, Streptococcus oralis OMZ 661, Treponema denticola OMZ 698, Campylobacter rectus OMZ 745, Actinomyces oris OMZ 871, Streptococcus anginosus OMZ 925, Porphyromonas gingivalis OMZ 1047, Tannerella forsythia [table] The purpose of the present biofilm experiment was to assess the efficacy of various antimicrobial solutions on a subgingival microbiota associated with periodontitis and implantitis. The antimicrobial effect was evaluated immediately and 24 h after a 1 min exposure to the test solutions to biofilms grown on titanium discs.

[1] = test system: individual members of the biofilm consortium; test: subgingival biofilm model, antimicrobial solutions alone, effect on individual species (Experiment 3); format: cell-based; conditions: NaCIO 0.1% and 1%; for P. intermedia and P. gingivalis in the following 24 h (re-growth): 24 h after treatment; for immediate effect on individual species (FIGS. 9, 10 and 11): all species, immediately after 1 min exposure
Text: as §1

skin = conditions: 2% solution; cited from earlier work
[2] = cited from earlier work

## [Na+].[O-]Cl [0.1% NaCIO, Sodium hypochlorite]
Supragingival biofilm; Experiment 2, 24 h after dip
  biofilm microbiota after 24 h (CFU, FIG. 8): in part recovered
Supragingival biofilm
  CFU 24 hours after cleaning agent treatment (summary, FIG. 3b): bacterial regrowth

## [H]/N=C(\N/C(=N/[H])NCCCCCCNC(=N)NC(=N)Nc1ccc(Cl)cc1)Nc1ccc(Cl)cc1 [0.2% CHX, Chlorhexidine]
Supragingival biofilm; Experiment 2, 24 h after dip
  reduction of the biofilm microbiota after 24 h: ~6 log steps
Supragingival biofilm; Experiment 2
  immediate effect on the biofilm microbiota (CFU, FIG. 8): low immediate effect
Supragingival biofilm
  CFU 24 hours after cleaning agent treatment (summary, FIG. 3b): clear CFU reduction
  CFU immediately after cleaning agent treatment (summary, FIG. 3a): no significant immediate CFU influence

## [H]/N=C(\N/C(=N/[H])NCCCCCCNC(=N)NC(=N)Nc1ccc(Cl)cc1)Nc1ccc(Cl)cc1 [1% CHX, Chlorhexidine]
Subgingival biofilm; Experiment 3
  reduction of the microbiota on the biofilms compared with the saline controls immediately after exposure (total CFU, FIG. 13): only a limited effect
Supragingival biofilm; Experiment 2, 24 h after dip
  biofilm microbiota after 24 h (CFU, FIG. 8): eradicating totally the biofilm microbiota
Supragingival biofilm
  CFU 24 hours after cleaning agent treatment (summary, FIG. 3b): clear CFU reduction
  CFU immediately after cleaning agent treatment (summary, FIG. 3a): no significant immediate CFU influence
[1]
  P. intermedia and P. gingivalis in the following 24 h (re-growth): eradication
  immediate effect on individual species (FIGS. 9, 10 and 11): only a limited effect

## [H]/N=C(\N/C(=N/[H])NCCCCCCNC(=N)NC(=N)Nc1ccc(Cl)cc1)Nc1ccc(Cl)cc1 [2% chlorhexidine, chlorhexidine]
skin
  skin irritation: irritating to the skin

## OO [3% H2O2, hydrogen peroxide]
Subgingival biofilm; Experiment 3
  reduction of the microbiota on the biofilms compared with the saline controls immediately after exposure (total CFU, FIG. 13): only a limited effect
[1]
  immediate effect on individual species (FIGS. 9, 10 and 11): only a limited effect

## OCl [3.0% sodium hypochlorite, Sodium hypochlorite]
Supragingival biofilm; Experiment 2, 24 h after dip
  biofilm microbiota after 24 h (CFU, FIG. 8): no detectable microorganisms
Supragingival biofilm; Experiment 2
  immediate effect on the biofilm microbiota (CFU, FIG. 8): no detectable microorganisms

## N=C(NCCCCCCNC(=N)NC(=N)Nc1ccc(Cl)cc1)NC(=N)Nc1ccc(Cl)cc1.O=C(O)[C@H](O)[C@@H](O)[C@H](O)[C@H](O)CO.O=C(O)[C@H](O)[C@@H](O)[C@H](O)[C@H](O)CO [CHX gluconate, Chlorhexidine gluconate]
[2]
  solubility in water: water-soluble

## [H]/N=C(\N/C(=N/[H])NCCCCCCNC(=N)NC(=N)Nc1ccc(Cl)cc1)Nc1ccc(Cl)cc1 [CHX, Chlorhexidine]
Subgingival biofilm; Experiment 3, 24 h after 1 min exposure
  strong sustained effect on the total CFU after 24 h / biofilm re-growth: not observed
Supragingival biofilm; 24 h after dip
  lasting biofilm inhibiting effect, recovery of the microorganisms after 24 h (CFU, FIG. 7): strong lasting effect
Supragingival biofilm
  immediate decontaminating effect compared to the saline control (CFU, FIG. 7): very modest

## OO [H2O2, hydrogen peroxide]
Supragingival biofilm; 24 h after dip
  lasting biofilm inhibiting effect, recovery of the microorganisms after 24 h (CFU, FIG. 7): no or minute lasting biofilm inhibiting action
Supragingival biofilm
  immediate decontaminating effect compared to the saline control (CFU, FIG. 7): very modest
Supragingival biofilm; Experiment 2, 24 h after dip
  biofilm microbiota after 24 h (CFU, FIG. 8): re-established to the level of the controls
Supragingival biofilm; Experiment 2
  immediate effect on the biofilm microbiota (CFU, FIG. 8): low decontaminating action

## OCl [NaCIO, Sodium hypochlorite]
Subgingival biofilm; Experiment 3
  reduction of the microbiota on the biofilms compared with the saline controls immediately after exposure (total CFU, FIG. 13): near or to the detection limit
Subgingival biofilm; subgingival model, experiment 3, immediate
  CFU immediately after cleaning agent treatment (summary, FIG. 3a): strong immediate CFU reduction
Supragingival biofilm
  immediate decontaminating effect compared to the saline control (CFU, FIG. 7): very impressive
  CFU 24 hours after cleaning agent treatment (summary, FIG. 3b): no sustained effect on its own
  CFU immediately after cleaning agent treatment (summary, FIG. 3a): reduces CFU counts the most; also recorded: strong immediate CFU reduction
Supragingival biofilm; Experiment 2, listed as sodium hypochlorite
  immediate effect on the biofilm microbiota (CFU, FIG. 8): below the detection level
[1]
  P. intermedia and P. gingivalis in the following 24 h (re-growth): eradication
  immediate effect on individual species (FIGS. 9, 10 and 11): near or to the detection limit
